Results on 3 molecules are retold here after US20140336130A1 (PHIGENIX, INC., priority 2011, published 2014).

What all share (type): cell-based, human
Test [1] relates to phospho-STAT3. Kind of test: Western blot of phospho-STAT3. The settings on record: DU145; vs untreated control. The method, then: (§1) Western blot analysis was performed as described in Example 2. […] After washing, the membranes were incubated with anti-rabbit antibody conjugated to horseradish peroxidase (HRP) (dilution 1:5000; Sigma), and signal detection was visualized using chemilluminescence reagents (Pierce) on an Alpha Innotech Fluorchem 8900. As a control, blots were stripped and re-probed with mouse anti-β-actin primary antibody (1:5000; Sigma-Aldrich) and HRP— conjugated anti-mouse secondary antibody (1:5000; Sigma-Aldrich), and signal detection was again visualized.\
Background: A western blot detects proteins with antibodies after separation by electrophoresis.

Test [2] concerns PAX2 expression. Briefly: PAX2 expression after AngII or pathway blockers. The settings on record: for PAX2 expression reduced by, compared to untreated control: Los 5 μM; for increase in PAX2 expression relative to untreated hPrEC cells: 10 μM AngII.
Test [3] deals with ERK. Kind of test: Western blot of ERK protein. As to conditions: DU145; Los. The method, then: (§2) Western blot analysis was performed as described in Example 2. Blots were then probed with primary antibody (anti-PAX2, -phospho-PAX2, -JNK, -phospho-JNK, -ERK1/2, or -phospho-ERK1/2) (Zymed, San Francisco, Calif.) at 1:1000-2000 dilutions. After washing, the membranes were incubated with anti-rabbit antibody conjugated to horseradish peroxidase (HRP) (dilution 1:5000; Sigma), and signal detection was visualized using chemilluminescence reagents (Pierce) on an Alpha Innotech Fluorchem 8900. As a control, blots were stripped and re-probed with mouse anti-β-actin primary antibody (1:5000; Sigma-Aldrich) and HRP— conjugated anti-mouse secondary antibody (1:5000; Sigma-Aldrich), and signal detection was again visualized.\

Test [4] deals with PAX2 protein. Briefly: Western blot analysis of PAX2 protein. The settings on record: DU145, Los 5 μM, U0126 25 μM, PD98059 20 μM, AICAR 250 μM, vs untreated control. The method, then: Briefly, cells were harvested by trypsinization and washed twice with PBS. Lysis buffer was prepared according to the manufacturer's instructions (Sigma), and was then added to the cells. Following a 15 minute incubation period at 4° C. on an orbital shaker, cell lysate were then collected and centrifuged for 10 minutes at 12000×g to pellet cellular debris. The protein-containing supernatant were then collected and quantitated. Next, 25 μg protein extract was loaded onto an 8-16% gradient SDS-PAGE (Novex). Following electrophoresis, proteins were transferred to PVDF membranes, and then blocked with 5% nonfat dry milk in TTBS (0.05% Tween 20 and 100 mM Tris-Cl) for 1 hour. Blots were then probed with rabbit anti-PAX2 primary antibody (Zymed, San Francisco, Calif.) at a 1:2000 dilution. After washing, the membranes were incubated with anti-rabbit antibody conjugated to horseradish peroxidase (HRP) (dilution 1:5000; Sigma), and signal detection was visualized using chemilluminescence reagents (Pierce) on an Alpha Innotech Fluorchem 8900. As a control, blots were stripped and reprobed with mouse anti-β-actin primary antibody (1:5000; Sigma-Aldrich) and HRP— conjugated anti-mouse secondary antibody (1:5000; Sigma-Aldrich) and signal detection was again visualized.
as §2
Western blot analysis was performed as described in Example 2.

Test [5] concerns phospho-ERK 1/2. Briefly: Western blot of phospho-ERK1/2. The settings on record: DU145, Los. On the procedure: as §2
The test system of test [6] is phospho-PAX2. Briefly: Western blot of phospho-PAX2. As to conditions: DU145. On the procedure: as §1
The subject of test [7] is phospho-JNK. Briefly: Western blot of phospho-JNK. The settings on record: DU145. The method, then:
as §1

Test [8] concerns DU145. Briefly: Thymidine incorporation, DU145. The method, then:
Proliferation of cells was determined by [3H] thymidine ribotide ([3H] TdR) incorporation into DNA. 0.5×10^6 cells/well of suspension DU145 cells were plated in their appropriate media. Cells were incubated for 72 h with or without the presence of AngII at the indicated concentrations. Cells were exposed to 37 kBq/ml [methyl-3H] thymidine in the same medium for 6 h. The adherent cells were fixed by 5% trichloroacetic acid and lysed in SDS/NaOH lysis buffer overnight. Radioactivity was measured by Beckman LS3801 liquid scintillation counter (Canada). Suspension cell cultures were harvested by cell harvester (Packard instrument Co., Meriden, Conn.), and radioactivity was measured by 1450 microbeta liquid scintillation counter (PerkinElmer Life Sciences).

The test system of test [9] is DEFB1. Briefly: QRT-PCR of DEFB1 (hBD-1) expression. As to conditions: for decrease in DEFB1 expression relative to untreated hPrEC cells: 10 μM AngII. The method, then:
Briefly, total RNA was isolated using the SV Total RNA Isolation System (Promega, Madison, Wis.) from approximately 1×10^6 cells harvested by trypsinizing. Cells were lysed and total RNA was isolated by centrifugation through spin columns. For cells collected by LCM, total RNA was isolated using the PicoPure RNA Isolation Kit (Arcturus Biosciences, Mt. View, Calif.) following the manufacturer's protocol. Total RNA (0.5 μg per reaction) from both sources was reverse transcribed into cDNA utilizing random primers (Promega). AMV Reverse Transcriptase II enzyme (500 units per reaction; Promega) was used for first strand synthesis and Tfl DNA Polymerase for second strand synthesis (500 units per reaction; Promega) as per the manufacturer's protocol. In each case, 50 pg of cDNA was used per ensuing PCR reaction. Two-step QRT-PCR was performed on cDNA generated using the MultiScribe Reverse Transcripatase from the TaqMan Reverse Transcription System and the SYBR® Green PCR Master Mix (Applied Biosystems).
Forty cycles of PCR were performed under standard conditions using an annealing temperature of 56° C. In addition, β-actin (Table 2) was amplified as a housekeeping gene to normalize the initial content of total cDNA. […]
Quantitative real-time RT-PCR was performed as described in Example 1 to verify changes in gene expression following PAX2 knockdown in PC3 and DU145 prostate cancer cell lines and the hPrEC normal prostate epithelial cells. […] Quantification was determined by the cycle number where exponential amplification began (threshold value) and averaged from the values obtained from the triplicate repeats. […] Relative expression was calculated as the ratio between each genes and GAPDH. […]
QRT-PCR was performed as previously described (Gibson et al., 2007). […] Gene expression in benign prostate tissue samples was calculated as the expression ratio compared to β-actin. Levels of hBD-1 expression in malignant prostate tissue, hPREC prostate primary culture, and prostate cancer cell lines before and after induction were calculated relative to the average level of hBD-1 expression in hPrEC cells. […]

“Also recorded” adds a separate entry of the source.

For the molecule `CCCCc1nc(Cl)c(CO)n1Cc1ccc(-c2ccccc2-c2nn[nH]n2)cc1` [Los, Losartan], the phospho-STAT3 protein levels result in test [1] is recorded as “reduced phospho-STAT3 protein levels; also recorded: suppress phospho-STAT3 protein levels”. Moreover, the “PAX2 expression reduced by, compared to untreated control” value in [2] (DU145, 48 hours) is given as 37%; in test [2] (DU145, 72 hours), 50%. Also, in [2] (DU145, Los (FIG. 21 legend)), the “effect of AngII on PAX2 expression” value is “blocks the effect of Angiotensin II”. Besides, the ERK protein levels entry in [3] is “no effect”. The PAX2 protein levels entry in test [4] is “significant reduction of PAX2 expression”; in [4] (listed as Losartan) it was “suppress PAX2 protein levels”. The results for the phospho-ERK protein level result in test [5] and in test [5] (listed as Losartan) were “reduced the amount of phospho-ERK” and “suppresses phospho-ERK 1/2”, respectively. In addition, in [6], the phospho-PAX2 protein levels entry is “significant decrease or suppression; also recorded: suppress phospho-PAX2 protein expression levels”. Besides, in test [7], the phospho-JNK protein levels entry was “did not decrease; also recorded: failed to decrease phospho-JNK protein levels”. In test [8] (Los), the “proliferation rate decreased by” value worked out at 50%. Further, the “effect of AngII on proliferation” value in test [8] (pre-treating with Los for 30 min) is listed as “suppressed the effect of AngII on proliferation”.

Regarding `N#CC(=C(/N)Sc1ccccc1N)/C(C#N)=C(\N)Sc1ccccc1N` [U0126], the phospho-STAT3 protein levels entry in test [1] was “reduced phospho-STAT3 protein levels; also recorded: suppress phospho-STAT3 protein levels”. The PAX2 expression entry in test [2] (DU145, U0126 25 μM, PD98059 20 μM) is listed as “significant reduction of PAX2 expression”. Moreover, the PAX2 protein levels result in test [4] was “suppress PAX2 protein levels”. The phospho-PAX2 protein levels entry in test [6] is “significant decrease or suppression; also recorded: suppress phospho-PAX2 protein expression levels”. For the same molecule, the phospho-JNK protein levels result in test [7] is recorded as “did not decrease; also recorded: failed to decrease phospho-JNK protein levels”.

Consider “Angiotensin II (DRVYIHPF; Angiotensin-2; UniProt P01019 25-32, looked up) [AngII]”, for which the PAX2 expression entry in test [2] (DU145, AngII treatment over 30 min to 48 hour) was “progressively increased over time”. Moreover, the “increase in PAX2 expression relative to untreated hPrEC cells” value in test [2] (hPrEC, 72 hours) stood at 66%; in test [2] (hPrEC, 96 hours), 79%. Moreover, in test [2] (hPrEC, AngII (FIG. 25 legend)), the PAX2 expression levels result is reported as “increases PAX2 expression levels”. Moreover, the “PAX2 expression as % of PAX2 levels in PC3 cells” value in [2] (hPrEC, AngII, 72 hours) is on record as 77%. Moreover, the “PAX2 expression as % of PAX2 expression in PC3 cells” value in test [2] (hPrEC, AngII, 96 hours) was determined as 89%. In addition, the “decrease in DEFB1 expression relative to untreated hPrEC cells” value in test [9] (72 hours) was 35%; in test [9] (96 hours) it was 50%. Besides, in [9] (hPrEC, AngII (FIG. 25 legend)), the DEFB1 expression levels entry was “decreases DEFB1 expression levels”. Besides, the proliferation rate entry in test [8] (AngII, 72 h) is “two- to three-fold increase; also recorded: increases DU145 cell proliferation”.
